Measured values published in patent US10441663B2, “Methods for treating cancer” (Bicycle Therapeutics Limited, priority 2016, dated 2019).
*1 amine or outer side, *2 acyl side, *3 side chain or, on linkers, in order; H or OH if unused. Where a SMILES comes first, the peptide text is derived from it. Bridges are numbered along the chain shown (N, C = ends). [ ]: non-standard residue; d: D form. The star is where a group is joined. X1 = COc1cc2cc(c1Cl)N(C)C(=O)C[C@H](OC(=O)[C@H](C)N(C)C(=O)CCSSC(C)CCC(=O)*)[C@]1(C)O[C@H]1[C@H](C)[C@@H]1C[C@@](O)(NC(=O)O1)[C@H](OC)/C=C/C=C(\C)C2; 1Nal = N[C@@H](Cc1cccc2ccccc12)C(=O)O; TBMB = c1c(C[*:1])cc(C[*:3])cc1C[*:2]; Tle = CC(C)(C)[C@H](N)C(=O)O; βAla = NCCC(=O)O; Sar = CNCC(=O)O

Test system: LU-01-0251 non-small-cell lung carcinoma (NSCLC) PDX model
Assay: Efficacy in LU-01-0251 NSCLC PDX model (high MT1-expressing, docetaxel sensitive)
Assay type: in vivo, Balb/C nude mice
Source text: The objective of the project is to evaluate the in vivo therapeutic efficacy of test articles in the LU-01-0251 non-small-cell lung carcinoma (NSCLC) PDX model. LU-01-0251 is a high MT1-expressing NSCLC that is docetaxel sensitive.
Each mouse was inoculated subcutaneously at the right flank with certain kind of tumor fragment (30 mm3) for tumor development. The treatments started when the average tumor volume reaches approximately 150-200 mm^3. The test article administration and the animal numbers in each group are shown in Table 40 which details the experimental design.
Treatment was given until the control tumors reached an average of 1000 mm^3.
Before commencement of treatment all animals will be weighed and the tumor volumes will be measured. Since the tumor volume can affect the effectiveness of any given treatment, mice will be assigned into groups using randomized block design based upon their tumor volumes.
The protocol and any amendment(s) or procedures involving the care and use of animals in this study will be reviewed and approved prior to conduct. […] At the time of routine monitoring, the animals will be checked for any effects of tumor growth and treatments on normal behavior such as mobility, food and water consumption, body weight gain/loss (body weights will be measured twice weekly), eye/hair matting and any other abnormal effect. Death and observed clinical signs will be recorded on the basis of the numbers of animals within each subset.
The major endpoint is to see if the tumor growth can be delayed or mice can be cured. Tumor sizes will be measured twice weekly in two dimensions using a caliper and the volume will be expressed in mm^3 using the formula: V=0.5 a×b^2 where a and b are the long and short diameters of the tumor, respectively. […] T-C is calculated with T as the median time (in days) required for the treatment group tumors to reach a predetermined size (e.g., 1.000 mm^3), and C is the median time (in days) for the control group tumors to reach the same size. […]
TGI is calculated for each group using the formula. […]

Structure (SMILES): COc1cc2cc(c1Cl)N(C)C(=O)C[C@H](OC(=O)[C@H](C)N(C)C(=O)CCSSC(C)CCC(=O)NCCC(=O)N(C)CC(=O)N(C)CC(=O)N(C)CC(=O)N(C)CC(=O)N(C)CC(=O)N(C)CC(=O)N(C)CC(=O)N(C)CC(=O)N(C)CC(=O)N(C)CC(=O)N[C@@H](C)C(=O)N[C@H]1CSCc3cc4cc(c3)CSC[C@H](NC(=O)[C@@H](C)NC(=O)[C@H](Cc3cccc5ccccc35)NC(=O)[C@H](CCC(=O)O)NC(=O)[C@H](CC(N)=O)NC(=O)[C@@H](C)NC1=O)C(=O)N[C@@H](CCC(=O)O)C(=O)N[C@@H](CC(=O)O)C(=O)N[C@@H](Cc1ccccc1)C(=O)N[C@@H](Cc1ccc(O)cc1)C(=O)N[C@@H](CC(=O)O)C(=O)N[C@@H](C(C)(C)C)C(=O)N[C@H](C(N)=O)CSC4)[C@]1(C)O[C@H]1[C@H](C)[C@@H]1C[C@@](O)(NC(=O)O1)[C@H](OC)/C=C/C=C(\C)C2 (stereo partly drawn) [BT1718] ({X1-βAla}-[Sar][Sar][Sar][Sar][Sar][Sar][Sar][Sar][Sar][Sar]AC[dA]NE[1Nal][dA]CEDFYD[Tle]C-NH2; linker 12-18-25 via TBMB (inferred))
- tumor response (3 mg/kg biw): tumor stasis
- relapse after cessation of dosing (10 mg/kg biw): lack of relapse
- tumor response (10 mg/kg biw): tumor eradication
